“And” between values parts separate entries of the source, which are not always exact repeats. Equal entries are not always repeated.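 96-well plates; 48 h exposure; 5 concentrations. Endpoints by linear interpolation between flanking doses. Not reached: highest tested concentration assigned. Here, GI50 denotes the concentration required for 50% inhibition of growth. TGI marks complete inhibition of growth.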
Assays:
Experiment in all cases: growth of human tumour cells (NCI), 48 h
[1] = system: 786-0 renal
[2] = system: COLO 205 colon
[3] = system: HCT-116 colon
[4] = system: HCT-15 colon
[5] = system: K-562 leukemia
[6] = system: KM12 colon
[7] = system: MDA-MB-231 breast
[8] = system: MDA-MB-435
[9] = system: MDA-N
[10] = system: OVCAR-3 ovarian
[11] = system: PC-3 prostate
[12] = system: RPMI-8226 leukemia
[13] = system: SF-268 CNS
[14] = system: SK-MEL-5 melanoma
[15] = system: SNB-19 CNS
[16] = system: HOP-92 NSCLC

SMILES | TGI [1] [µM] | TGI [2] | TGI [3] [µM] | TGI [4] | TGI [5] | TGI [6] [µM] | TGI [7] [µM] | TGI [8] [µM] | TGI [9] [µM] | TGI [10] [µM] | TGI [11] [µM] | TGI [12] [µM] | TGI [13] [µM] | TGI [14] [µM] | TGI [15] [µM] | TGI [16] [µM] | GI50 [3] | GI50 [4] | GI50 [6] | GI50 [15] [µM]
Cc1cc(O)c(C(O)c2ccccn2)cc1O (stereo not given) | 34.5 | 23.4 µM | 31.2 | 34.1 µM | > 100 µM | 82.3 | 33.3 | 35.3 | 36.2 | 28.6 | 29.1 | 67.4 | > 100 | 38.4 | > 100 |  |  |  |  | 
O=C1/C(=C/c2ccc([N+](=O)[O-])cc2)Oc2cc(O)ccc21 | 70.6 |  | > 100 | 69.1 µM | 46.9 µM | > 100 | 73.9 | > 100 | 60.2 | 73.8 | 66.8 | 65.8 | > 100 | 48 | > 100 |  |  |  |  | 
c1ccc2c(c1)n1c(N3CCCC3)[n+]3ccccc3c1c1c3cccc[n+]3c(N3CCCC3)n21 | > 100 | 74.9 µM | > 100 | > 100 µM | > 100 µM | > 100 | > 100 | > 100 |  | > 100 | > 100 | > 100 | 45.2 | 65.8 | > 100 | > 100 |  |  |  | 
CC[n+]1c(/C=C/c2cc(C(=O)OC)n3c2sc2ccccc23)sc2ccccc21 | 38.6 | 65.8 µM | 37.1 | 34.9 µM | 31.2 µM | 29.1 |  |  |  | 42.4 |  |  | 42.2 | 28.9 | 44 | 31.6 |  |  |  | 
COc1ccc(-n2c(C)nc3ccc(NC4OC(COC(C)=O)C(OC(C)=O)C(OC(C)=O)C4OC(C)=O)cc3c2=O)cc1 (stereo not given) | 65.3 | 49.4 µM | 46.5 | > 100 µM | 79 µM | > 100 | > 100 | > 100 | > 100 | > 100 | > 100 | 61.2 | > 100 | > 100 | > 100 |  |  |  |  | 
COc1cc(C(C)c2cc3c(cc2OCCCCCOc2cc4c(cc2C(C)c2cc(OC)c(OC)c(OC)c2)OCO4)OCO3)cc(OC)c1OC (stereo not given) | > 100 |  | > 100 | > 100 µM | > 100 µM | > 100 |  |  |  | > 100 |  | > 100 | > 100 | > 100 | > 100 |  |  |  |  | 
C=Cc1c(-c2ccccc2)cnc2[nH]c3ccccc3c12 | > 50 | > 50 µM | > 50 | > 50 µM | > 50 µM | > 50 |  |  |  | > 50 |  | > 50 | > 50 | > 50 | > 50 |  |  |  |  | 
O=C(O)c1cc(-c2ccc3cc(O)c(O)cc3c2)ccc1O | > 12.5 | > 12.5 µM | > 12.5 | > 12.5 µM | > 12.5 µM | > 12.5 | > 12.5 | > 12.5 | > 12.5 | > 12.5 | > 12.5 |  | > 12.5 | > 12.5 | > 12.5 |  |  |  |  | 
O=C(CC(=O)n1nc(-c2ccccc2)c(N=Nc2ccc([N+](=O)[O-])cc2)c1-c1ccccc1)Nc1ccc(Cl)cc1 | > 100 | 34.9 µM | > 100 |  | 17.8 µM | > 100 |  |  |  | 66.1 |  | > 100 | > 100 | 22.3 | 81.6 | 52.3 |  |  |  | 
COC(=O)/C=C1\C(=O)Nc2ccc(Br)cc21 | 3.05 | 3.45 µM | 2.64 | 2.81 µM | > 28 µM | 4.8 | 6.64 | 4.76 |  | 2.95 | 2.82 | 4.48 | 13.8 | 3.2 | 11.4 | 4.92 |  |  |  | 
COc1cccc(C2c3cc4c(cc3OC(N3CCCC3)C2c2ccccc2)OCO4)c1O (stereo not given) | 27.8 | 27.3 µM | 17.7 | 37.3 µM | 42.6 µM | 18.7 |  | 22.8 | 24.6 | 27.8 | 27 | 31 | 46.4 | 22.6 | 27.7 |  |  |  |  | 
CC(=O)/C=C1/C(=O)C(CC(C)C)=C1CC(C)C | > 100 | > 100 µM | > 100 | > 100 µM |  | > 100 | > 100 | > 100 | > 100 |  | > 100 |  | > 100 | > 100 | > 100 | > 100 |  |  |  | 
Cc1nsc2cc(Cl)n(C)c(=O)c12 | > 100 | > 100 µM | > 100 | > 100 µM | > 100 µM | > 100 |  |  |  | > 100 |  | > 100 | > 100 | > 100 | > 100 | > 100 |  |  |  | 
CCCCCCCCC#CCCCCCCC(F)C(=O)O (stereo not given) | > 100 | > 100 µM | > 100 | > 100 µM | > 100 µM | > 100 |  | > 100 |  | > 100 | > 100 | > 100 | > 100 | > 100 | > 100 | > 100 |  |  |  | 
O=C1CSc2ccnc(=O)n21 | > 100 | > 100 µM | > 100 |  |  |  |  | > 100 | > 100 |  | > 100 | > 100 | > 100 | > 100 | > 100 | > 100 |  |  |  | 
COc1ccc(-n2c(C)nc3ccc(NC4OCC(OC(C)=O)C(OC(C)=O)C4OC(C)=O)cc3c2=O)cc1 (stereo not given) | > 100 | > 100 µM | > 100 | > 100 µM | > 100 µM | > 100 | > 100 | > 100 | > 100 | > 100 | > 100 | > 100 | > 100 | > 100 | > 100 |  |  |  |  | 
COc1cc(CNc2ccc(C)cc2)cc(OC)c1OC | > 44.9 | 0.385 µM and 1.11 µM |  | 9.02 µM and > 37.2 µM | > 42.3 µM and 25 µM | 2.33 |  |  |  | 0.597 |  | > 50.2 | > 90.3 | > 100 | > 100 | > 100 | 0.333 µM and 0.816 µM | 0.1 µM and 0.275 µM | 0.104 µM and 0.341 µM | 0.959
